From paper PMC3161034 (BMC Cancer, 2011)

Columns and labels:
[1] = test system: patients with advanced NSCLC; settings: cited from earlier work
[2] = test system: patients with solid tumors; experiment: Adverse events graded by CTCAE version 3.0, relatedness by investigator; assay type: in vivo, human; settings: for Patients discontinuing treatment with the drug because of adverse events: all cohorts
Protocol: Cohort enrollment could be expanded to ensure that at least 6 evaluable patients were enrolled or in the event of unresolved safety, pharmacokinetic, or other concerns. The overall sample size could be further increased if additional dose cohorts were considered justified based on the results from the dose-escalation portion of the study. For continuous endpoints, the mean, standard error or standard deviation (SD); median; 25th and 75th percentiles; and minimum and maximum were calculated. For discrete data, the frequency and percent distributions were calculated. No formal comparisons between cohorts were performed. The data were analyzed using SAS software version 8.2 (SAS Institute, Cary, NC). […] The safety analysis set included all patients who received at least 1 dose of study therapy.

[3] = clinical; settings: for Tmax: Median tmax
Protocol: Plasma concentrations of motesanib were analyzed using a validated liquid chromatography/tandem mass spectrometry (LC-MS/MS) method with a lower limit of quantitation (LLOQ) of 0.2 ng/mL (Cedra Corp., Austin, TX).
Pharmacokinetic parameter estimates were calculated according to standard noncompartmental methods using WinNonlin software (version 5.1.1; Pharsight Corporation, Mountain View, CA) and summarized by dose level. […] For the BID cohort, AUC0—24 values for motesanib were determined by 2 × AUC0—12. The terminal elimination rate constant (λZ) was determined by linear regression of the natural logarithms of plasma concentrations versus time during the terminal phase; the corresponding t1/2 was calculated.
The GLSM were calculated by first obtaining the least squares means for the log-transformed Cmax values (logCmax) and AUC0—24 values (logAUC0—24) for weeks 3 and 2, and then converting these values back to the original scale. The ratio and 90% confidence interval (CI) of GLSM was calculated by first estimating the difference (and 90% CI) in the least squares means between weeks 3 and 2 for logCmax and logAUC0—24, and then converting the numbers back to their original scale.

[4] = test system: cytochrome P450 (CYP) 3A4; settings: cited from earlier work
[5] = test system: CYP1A2; settings: cited from earlier work
[6] = test system: deoxycytidine deaminase; parameters: method as in PMID 16807468; settings: cited from earlier work
[7] = 56 patients who received erlotinib

Row | Structure (SMILES) | Progression-free survival ([1]; phase 3, advanced NSCLC after failed first-line therapy) [mo] | Response rate ([1]; phase 3, P = 0.006) [%] | Overall survival ([1]; phase 3) [mo] | Erlotinib-related anorexia [2, 7] [n] | Erlotinib-related diarrhea [2, 7] [n] | Erlotinib-related fatigue [2, 7] [n] | Erlotinib-related nausea [2, 7] [n] | Erlotinib-related rash [2, 7] [n] | Erlotinib-related vomiting [2, 7] [n] | Patients discontinuing treatment with the drug because of adverse events [2] [n] | Incidence of erlotinib-related skin rash ([2]; present study, all patients) [%] | Mean t1/2, z ([3]; human, in vivo, 100 mg) [h] | half-life ([3]; human, in vivo, 100 mg, Mean t1/2, z) [h] | Tmax ([3]; human, in vivo, 100 mg) [h] | Median tmax ([3]; human, in vivo, 150 mg) [h] | Tmax ([3]; human, in vivo, 150 mg) [h] | Overall median tmax ([3]; week 3, 100 mg erlotinib QD with gemcitabine and motesanib) [h] | Metabolism by CYP3A4 [4] | Metabolism by CYP1A2 [5] | Metabolism by deoxycytidine deaminase [6]
1 | C#Cc1cccc(Nc2ncnc3cc(OCCOC)c(OCCOC)cc23)c1 [erlotinib] | 1.7 | 6.2 | 9.2 | 16 | 35 | 14 | 23 | 42 | 15 | 7 | 75 | 12 to 19 | 17 to 33 | 2 to 6 | 2 to 4 | 1 to 3 | 2 | metabolized at least in part | metabolized at least in part | 
2 | Nc1ccn([C@@H]2O[C@H](CO)[C@@H](O)C2(F)F)c(=O)n1 [gemcitabine, reference compound] |  |  |  |  |  |  |  |  |  | 8 |  |  |  |  |  |  |  |  |  | primarily metabolized
